Test results: US20070049564A1 (Wyeth, priority 2005, published 2007)
Values after ≈ are worked out from the molar mass of the structure shown. Read-outs that look alike come from different tables or passages of the source.

Columns and labels:
S. aureus GC 2216 = assay: MIC, broth microdilution; conditions: Staphylococcus aureus
E. faecalis GC 2267 = assay: MIC, broth microdilution; conditions: Enterococcus faecalis
E. faecium GC 4556 = assay: MIC, broth microdilution; conditions: Enterococcus faecium
S. typhimurium GC 2172 = assay: MIC, broth microdilution; conditions: Salmonella enterica, TYPHIMURIUM
E. coli GC 2232 = assay: MIC, broth microdilution; conditions: Escherichia coli
S. epidermidis GC 4935 = assay: MIC, broth microdilution; conditions: Staphylococcus epidermidis
Experimental: Antimicrobial susceptibility testing. The in vitro activities of the antibiotics are determined by the broth microdilution method as recommended by the National Committee for Clinical Laboratory Standards (NCCLS) (1). Mueller-Hinton II broth (MHBII)(BBL Cockeysville, Md.) is the medium employed in the testing procedures. Microtiter plates containing serial dilutions of each antimicrobial agent are inoculated with each organism to yield the appropriate density (10^5 CFU/ml) in a 100 μl final volume. The plates are incubated for 18-22 hours at 35° C. in ambient air.
Representative compounds were first incubated in mouse serum for an hour prior to the in vitro testing against a panel of selected gram-positive and gram-negative bacteria strains. All compounds were also pre-incubated in water for an hour prior to testing as control. Representative compounds of Formula I were incubated in human serum prior to MIC determination.

Staph. aureus Smith = assay: In vivo activity (oral, iv; ED50) against Staph. aureus Smith in mice
Experimental: Representative examples of compounds of Formula I were tested for the oral efficacy using S. aureus Smith in mice.

S. aureus GC 6466 = assay: MIC, broth microdilution; conditions: Staphylococcus aureus
S. aureus GC 1079 = assay: MIC, broth microdilution; conditions: Staphylococcus aureus
S. pyogenes GC 4563 = assay: MIC, broth microdilution; conditions: Streptococcus pyogenes
Experimental: Antimicrobial susceptibility testing. The in vitro activities of the antibiotics are determined by the broth microdilution method as recommended by the National Committee for Clinical Laboratory Standards (NCCLS) (1). Mueller-Hinton II broth (MHBII)(BBL Cockeysville, Md.) is the medium employed in the testing procedures. Microtiter plates containing serial dilutions of each antimicrobial agent are inoculated with each organism to yield the appropriate density (10^5 CFU/ml) in a 100 μl final volume. The plates are incubated for 18-22 hours at 35° C. in ambient air. […] Standard Pharmacological Test Procedures
Presented in Tables I-XIII are representative compounds of Formula I which were evaluated against a panel of 40 selected gram-positive and gram-negative bacteria strains by pre-incubation in water, mouse serum or human serum. Representative compounds were first incubated in mouse serum for an hour prior to the in vitro testing against a panel of selected gram-positive and gram-negative bacteria strains. All compounds were also pre-incubated in water for an hour prior to testing as control. Representative compounds of Formula I were incubated in human serum prior to MIC determination.

S. aureus GC 1131 = assay: MIC, broth microdilution; conditions: Staphylococcus aureus
E. coli GC 2272 = assay: MIC, broth microdilution; conditions: Escherichia coli
S. pneumoniae+ GC 4465 = assay: MIC, broth microdilution; conditions: Streptococcus pneumoniae
E. faecium GC 2243 = assay: MIC, broth microdilution; conditions: Enterococcus faecium
E. coli GC 2234 = assay: MIC, broth microdilution; conditions: Escherichia coli
c. albicans GC 3066 = assay: MIC, broth microdilution
E. coli GC 3226 = assay: MIC, broth microdilution; conditions: Escherichia coli
E. coli GC 2231 = assay: MIC, broth microdilution; conditions: Escherichia coli
S. aureus GC 6335 = assay: MIC, broth microdilution; conditions: Staphylococcus aureus
S. pneumoniae* GC 4465 = assay: MIC, broth microdilution; conditions: Streptococcus pneumoniae
[1] = read-out: MINIMAL INHIBITORY CONCENTRATION MIC, pre-incubated in Human Serum
[2] = read-out: MINIMAL INHIBITORY CONCENTRATION MIC, pre-incubated in Mouse Serum
[3] = read-out: MINIMAL INHIBITORY CONCENTRATION MIC, pre-incubated in Water

## CC(C)C(=O)OCOC(=O)N(CC(=O)Nc1cc(N(C)C)c2c(c1O)C(=O)C1=C(O)[C@]3(O)C(=O)C(C(N)=O)=C(O)[C@@H](N(C)C)[C@@H]3C[C@@H]1C2)C(C)(C)C [Example 45, ({[(2-{[(5aR,6aS,7S,10aS)-9-(aminocarbonyl)-4,7-bis(dimethylamino)-1,8,10a,11-tetrahydroxy-10,12-dioxo-5,5a,6,6a,7,10,10a,12-octahydrotetracen-2-yl]amino}-2-oxoethyl)(tert-butyl)amino]carbonyl}oxy)methyl 2-methylpropanoate]
S. aureus GC 2216; GC2216, read-out: MINIMAL INHIBITORY CONCENTRATION MIC, pre-incubated in Human Serum
  MIC: 0.5 µg/mL (≈ 0.685 µM)
S. aureus GC 2216; GC2216, read-out: MINIMAL INHIBITORY CONCENTRATION MIC, pre-incubated in Mouse Serum
  MIC: 1 µg/mL (≈ 1.37 µM)
S. aureus GC 2216; GC2216, read-out: MINIMAL INHIBITORY CONCENTRATION MIC, pre-incubated in Water
  MIC: 1 µg/mL (≈ 1.37 µM)
E. faecalis GC 2267; GC2267, read-out: MINIMAL INHIBITORY CONCENTRATION MIC, pre-incubated in Human Serum
  MIC: 1 µg/mL (≈ 1.37 µM)
E. faecalis GC 2267; GC2267, read-out: MINIMAL INHIBITORY CONCENTRATION MIC, pre-incubated in Mouse Serum
  MIC: 0.5 µg/mL (≈ 0.685 µM)
E. faecalis GC 2267; GC2267, read-out: MINIMAL INHIBITORY CONCENTRATION MIC, pre-incubated in Water
  MIC: 2 µg/mL (≈ 2.74 µM)
E. faecium GC 4556; GC4556, read-out: MINIMAL INHIBITORY CONCENTRATION MIC, pre-incubated in Human Serum
  MIC: 1 µg/mL (≈ 1.37 µM)
E. faecium GC 4556; GC4556, read-out: MINIMAL INHIBITORY CONCENTRATION MIC, pre-incubated in Mouse Serum
  MIC: 1 µg/mL (≈ 1.37 µM)
E. faecium GC 4556; GC4556, read-out: MINIMAL INHIBITORY CONCENTRATION MIC, pre-incubated in Water
  MIC: 2 µg/mL (≈ 2.74 µM)
S. typhimurium GC 2172; [1]
  MIC: 32 µg/mL (≈ 43.8 µM)
S. typhimurium GC 2172; [2]
  MIC: 2 µg/mL (≈ 2.74 µM)
S. typhimurium GC 2172; [3]
  MIC: > 64 µg/mL
E. coli GC 2232; GC2232, read-out: MINIMAL INHIBITORY CONCENTRATION MIC, pre-incubated in Human Serum
  MIC: 4 µg/mL (≈ 5.48 µM)
E. coli GC 2232; GC2232, read-out: MINIMAL INHIBITORY CONCENTRATION MIC, pre-incubated in Mouse Serum
  MIC: 1 µg/mL (≈ 1.37 µM)
E. coli GC 2232; GC2232, read-out: MINIMAL INHIBITORY CONCENTRATION MIC, pre-incubated in Water
  MIC: 16 µg/mL (≈ 21.9 µM)
S. epidermidis GC 4935; GC4935, read-out: MINIMAL INHIBITORY CONCENTRATION MIC, pre-incubated in Human Serum
  MIC: 1 µg/mL (≈ 1.37 µM)
S. epidermidis GC 4935; GC4935, read-out: MINIMAL INHIBITORY CONCENTRATION MIC, pre-incubated in Mouse Serum
  MIC: 1 µg/mL (≈ 1.37 µM)
S. epidermidis GC 4935; GC4935, read-out: MINIMAL INHIBITORY CONCENTRATION MIC, pre-incubated in Water
  MIC: 2 µg/mL (≈ 2.74 µM)
Staph. aureus Smith; Staphylococcus aureus, in Mus musculus, iv, read-out: ED50 SIV (Staph aureus Smith)
  ED50: 0.66 mg/kg
Staph. aureus Smith; Staphylococcus aureus, in Mus musculus, po, read-out: ED50 SOD (Staph aureus Smith)
  ED50: 5.9 mg/kg
Staph. aureus Smith; Staphylococcus aureus, in Mus musculus, po, read-out: ED50 Staph Smith SOD
  ED50: 5.9 mg/kg
Staph. aureus Smith; iv, read-out: ED50 Staph Smith SIV
  ED50: 0.66 mg/kg
S. aureus GC 6466; GC6466, read-out: MINIMAL INHIBITORY CONCENTRATION MIC, pre-incubated in Human Serum
  MIC: 0.25 µg/mL (≈ 0.343 µM)
S. aureus GC 6466; GC6466, read-out: MINIMAL INHIBITORY CONCENTRATION MIC, pre-incubated in Mouse Serum
  MIC: 0.25 µg/mL (≈ 0.343 µM)
S. aureus GC 6466; GC6466, read-out: MINIMAL INHIBITORY CONCENTRATION MIC, pre-incubated in Water
  MIC: 0.5 µg/mL (≈ 0.685 µM)
S. aureus GC 1079; GC1079, read-out: MINIMAL INHIBITORY CONCENTRATION MIC, pre-incubated in Human Serum
  MIC: 0.12 µg/mL (≈ 0.164 µM)
S. aureus GC 1079; GC1079, read-out: MINIMAL INHIBITORY CONCENTRATION MIC, pre-incubated in Mouse Serum
  MIC: 0.5 µg/mL (≈ 0.685 µM)
S. aureus GC 1079; GC1079, read-out: MINIMAL INHIBITORY CONCENTRATION MIC, pre-incubated in Water
  MIC: 1 µg/mL (≈ 1.37 µM)
S. pyogenes GC 4563; GC4563, read-out: MINIMAL INHIBITORY CONCENTRATION MIC, pre-incubated in Human Serum
  MIC: 0.25 µg/mL (≈ 0.343 µM)
S. pyogenes GC 4563; GC4563, read-out: MINIMAL INHIBITORY CONCENTRATION MIC, pre-incubated in Mouse Serum
  MIC: 0.25 µg/mL (≈ 0.343 µM)
S. pyogenes GC 4563; GC4563, read-out: MINIMAL INHIBITORY CONCENTRATION MIC, pre-incubated in Water
  MIC: 0.5 µg/mL (≈ 0.685 µM)
S. aureus GC 1131; GC1131, read-out: MINIMAL INHIBITORY CONCENTRATION MIC, pre-incubated in Human Serum
  MIC: 0.5 µg/mL (≈ 0.685 µM)
S. aureus GC 1131; GC1131, read-out: MINIMAL INHIBITORY CONCENTRATION MIC, pre-incubated in Mouse Serum
  MIC: 0.5 µg/mL (≈ 0.685 µM)
S. aureus GC 1131; GC1131, read-out: MINIMAL INHIBITORY CONCENTRATION MIC, pre-incubated in Water
  MIC: 1 µg/mL (≈ 1.37 µM)
E. coli GC 2272; GC2272, read-out: MINIMAL INHIBITORY CONCENTRATION MIC, pre-incubated in Human Serum
  MIC: 8 µg/mL (≈ 11 µM)
E. coli GC 2272; GC2272, read-out: MINIMAL INHIBITORY CONCENTRATION MIC, pre-incubated in Mouse Serum
  MIC: 1 µg/mL (≈ 1.37 µM)
E. coli GC 2272; GC2272, read-out: MINIMAL INHIBITORY CONCENTRATION MIC, pre-incubated in Water
  MIC: 16 µg/mL (≈ 21.9 µM)
S. pneumoniae+ GC 4465; [1]
  MIC: 2 µg/mL (≈ 2.74 µM)
S. pneumoniae+ GC 4465; [2]
  MIC: 2 µg/mL (≈ 2.74 µM)
S. pneumoniae+ GC 4465; [3]
  MIC: 4 µg/mL (≈ 5.48 µM)
E. faecium GC 2243; GC2243, read-out: MINIMAL INHIBITORY CONCENTRATION MIC, pre-incubated in Human Serum
  MIC: 1 µg/mL (≈ 1.37 µM)
E. faecium GC 2243; GC2243, read-out: MINIMAL INHIBITORY CONCENTRATION MIC, pre-incubated in Mouse Serum
  MIC: 0.5 µg/mL (≈ 0.685 µM)
E. faecium GC 2243; GC2243, read-out: MINIMAL INHIBITORY CONCENTRATION MIC, pre-incubated in Water
  MIC: 2 µg/mL (≈ 2.74 µM)
E. coli GC 2234; GC2234, read-out: MINIMAL INHIBITORY CONCENTRATION MIC, pre-incubated in Human Serum
  MIC: 4 µg/mL (≈ 5.48 µM)
E. coli GC 2234; GC2234, read-out: MINIMAL INHIBITORY CONCENTRATION MIC, pre-incubated in Mouse Serum
  MIC: 0.5 µg/mL (≈ 0.685 µM)
E. coli GC 2234; GC2234, read-out: MINIMAL INHIBITORY CONCENTRATION MIC, pre-incubated in Water
  MIC: 16 µg/mL (≈ 21.9 µM)
c. albicans GC 3066; Candida albicans, GC3066, read-out: MINIMAL INHIBITORY CONCENTRATION MIC
  MIC: > 64 µg/mL
c. albicans GC 3066; pre-incubated in Human Serum
  MINIMAL INHIBITORY CONCENTRATION MIC: >64 UG/ML
c. albicans GC 3066; pre-incubated in Mouse Serum
  MINIMAL INHIBITORY CONCENTRATION MIC: >64 UG/ML
E. coli GC 3226; GC3226, read-out: MINIMAL INHIBITORY CONCENTRATION MIC, pre-incubated in Human Serum
  MIC: 8 µg/mL (≈ 11 µM)
E. coli GC 3226; GC3226, read-out: MINIMAL INHIBITORY CONCENTRATION MIC, pre-incubated in Mouse Serum
  MIC: 1 µg/mL (≈ 1.37 µM)
E. coli GC 3226; GC3226, read-out: MINIMAL INHIBITORY CONCENTRATION MIC, pre-incubated in Water
  MIC: 64 µg/mL (≈ 87.7 µM)
E. coli GC 2231; GC2231, read-out: MINIMAL INHIBITORY CONCENTRATION MIC, pre-incubated in Human Serum
  MIC: 4 µg/mL (≈ 5.48 µM)
E. coli GC 2231; GC2231, read-out: MINIMAL INHIBITORY CONCENTRATION MIC, pre-incubated in Mouse Serum
  MIC: 1 µg/mL (≈ 1.37 µM)
E. coli GC 2231; GC2231, read-out: MINIMAL INHIBITORY CONCENTRATION MIC, pre-incubated in Water
  MIC: 32 µg/mL (≈ 43.8 µM)
S. aureus GC 6335; GC6335, read-out: MINIMAL INHIBITORY CONCENTRATION MIC, pre-incubated in Human Serum
  MIC: 0.5 µg/mL (≈ 0.685 µM)
S. aureus GC 6335; GC6335, read-out: MINIMAL INHIBITORY CONCENTRATION MIC, pre-incubated in Mouse Serum
  MIC: 1 µg/mL (≈ 1.37 µM)
S. aureus GC 6335; GC6335, read-out: MINIMAL INHIBITORY CONCENTRATION MIC, pre-incubated in Water
  MIC: 2 µg/mL (≈ 2.74 µM)
S. pneumoniae* GC 4465; [1]
  MIC: 0.25 µg/mL (≈ 0.343 µM)
S. pneumoniae* GC 4465; [2]
  MIC: 0.25 µg/mL (≈ 0.343 µM)
S. pneumoniae* GC 4465; [3]
  MIC: 0.5 µg/mL (≈ 0.685 µM)
